Data on ten compounds can be found in patent publication EP4620955A1, “MC4R ANTAGONIST COMPOUND, PHARMACEUTICAL COMPOSITION AND PHARMACEUTICAL USE THEREOF” (Changchun Genescience Pharmaceutical Co., Ltd., priority 2022, dated 2024).

For series [1], the target named is T1, MC4R (Homo sapiens, UniProt P32245).
T1 construct: expressed in transfected cells; host or cells: flipin-293-MC4 (Flp-In 293 host, hygromycin selection)
The experiment in a line: Assay of MC4R antagonist activity in cells in vitro (cAMP assay, Melanotan I stimulation). Format: cell-based. The note with it: flipin-293-MC4 cell line, Melanotan I as agonist. The method, then: Test Example 1: Assay of MC4R antagonist activity in cells in vitro
a. Experimental consumables:
b. Experimental steps • ✔ Cell line: flipin-293-MC4 • ✔ Cell culture medium: DMEM, 10% fetal bovine serum, 1 × PS, 200 µg/mL hygromycin • ✔ Experimental buffer: HBSS, 20 mM HEPES, 0.1% BSA, 500 µM IBMX • ✔ Positive compound: ML00253764 c. Antagonist detection • 1. Digested cells were suspended in the experimental buffer, and then inoculated into the 384-well cell culture plate. • 2. The to-be-detected compound was added to the cell plate, and incubated at 37°C for 10 min. • 3. Melanotan I was added to the cell plate, and incubated at 37°C for 30 min. • 4. Two detection reagents EU cAMP tracer and ulight anti camp were thawed and diluted with a lysis solution in the kit. • 5. The diluted detection reagents were added to the cell plate and incubated at room temperature for 1 h. • 6. Reading was carried out by Envision. (Excitation light: 340 nm, emission light: 615 nm and 665 nm) d. Data analysis • 1. %Inhibition calculation: %Inhibition = (Signalcmpd−SignalAve_VC)/(SignalAve_PC−SignalAve_VC) × 100. [formula] • Signalcmpd: compound signal value; • SignalAve_VC: negative control signal value; • SignalAve_PC: positive control signal value; • %inhibition: inhibition percentage. • 2. Calculation of IC50 of the compound using the nonlinear fitting equation in GraphPad: Y = Bottom + (Top−Bottom)/(1+10^(∧)((LogIC50−X)×HillSlope)) [formula] X: logarithmic value of the concentration of the compound; Y: inhibition percentage
On the technique in general: cAMP levels reflect the balance of adenylyl cyclase and phosphodiesterase activity.

A short description of series [2]: Pharmacokinetic study on the tested compound in SD male rats. It counts as in vivo. The note with it: IV 1 mpk/PO 2 mpk; for AUC / Cmax / clearance / half-life: Sprague-Dawley (SD), rat, plasma. The method, then: On the day of administration, the tested compound was prepared with 5% DMSO + 5% Solutol + 90% Saline as a solvent into a solution for administration for use.
The solution for administration was administered to an intravenous injection IV group at a dose of 1 mg/kg in a concentration of 0.2 mg/mL. The solution for administration was administered to an oral gavage PO group at a dose of 2 mg/kg in a concentration of 0.2 mg/mL. The animals in the PO group were required to fast overnight in advance, drink water freely, and be fed 4 hours after administration. The IV group was not required to fast.
The animals were weighed before administration. On the day of administration, the solution was IV/PO-administered once in an administration amount calculated based on the weight. In the IV group, blood was collected from veins at 0.083 h, 0.25 h, 0.5 h, 1.0 h, 2.0 h, 4.0 h, 8.0 h, and 24 h after administration. In the PO group, blood was collected from veins at 0.25 h, 0.5 h, 1.0 h, 2.0 h, 4.0 h, 6.0 h, 8.0 h, and 24 h after administration. The amount of blood collected was about 0.20 mL. K2-EDTA was used in blood collection tubes as an anticoagulant. The collected blood sample was centrifuged (centrifugation conditions: 6800 g, 6 min, 2°C to 8°C) within 1 h to obtain plasma. The to-be-tested sample was stored in a refrigerator at -80°C before analysis.
The concentration of the tested compound in the plasma of the SD male rats was detected by the validated LC-MS/MS method.

Series [3] concerns the target T2, CYP 3A4M (Homo sapiens, UniProt P08684).
T2 construct: from tissue; host or cells: human liver microsomes (HLM)
The experiment in a line: Inhibition of P450 enzyme (CYP 3A4, midazolam as substrate) in human liver microsomes. It counts as in vitro ADME. The method, then: The inhibitory effect of the tested compound on 3A4-M (with midazolam as a substrate) in human liver microsomes is evaluated in vitro to assess the safety of the compound.
In this study, the inhibition of CYP 3A4 enzyme in human liver microsomes by the tested compound was investigated using the human liver microsomal system and the cytochrome P450 enzyme probe substrate recommended by the FDA Guidance for In Vitro Drug Interaction Studies. The human liver microsomes were incubated separately with the tested compound of different concentrations (0 µM to 30.0 µM) and corresponding probe substrates. Then, the changes of activity of the CYP enzyme were determined, and the IC50 value was calculated, to evaluate the inhibitory potential of the tested compound on the CYP 3A4 enzyme.
Test group (TG): The human liver microsomes were incubated separately with the tested compound of different concentrations, NADPH (in a final concentration of 2.00 mM), and probe substrates (Table 4) of different enzymes in subfamilies for 5 min.
Positive control group (PC): The human liver microsomes were incubated separately with an inhibitor (Table 4), NADPH (in a final concentration of 2.00 mM), and a probe substrate (Table 4) of 3A4M for 5 min. Table 4 Probe substrate of each enzyme in the subfamily, inhibitor, and incubation system
At the end of the incubation, the reaction was terminated with a stop solution.
8 µL of 30 mM test sample was transferred to 12 µL of DMSO to give a 12 mM test sample intermediate solution, and then diluted with DMSO to give test sample working solutions in different concentrations (12 mM, 4 mM, 1.33 mM, 0.433 mM, 0.147 mM, 0.049 mM, and 0.0164 mM).
To 12 µL of DMSO was added 8 µL of 2.5 mM CYP3A4 inhibitor ketoconazole stock solution to give a 1 mM positive control inhibitor working solution.
(§1) 199 µL of 0.2 mg/mL HLM and 1 µL of test sample working solution (12 mM, 4 mM, 1.33 mM, 0.433 mM, 0.147 mM, 0.049 mM, and 0.0164 mM) were mixed uniformly. 30 µL of this liver microsome solution was added to a 96-well plate, and then 10 µL of substrate working solution (320 µM testosterone or 20 µM midazolam) was added. This preparation process was carried out in duplicate. After pre-incubation at 37°C for 5 min, 15 µL of 8 mM NADPH solution pre-warmed at 37°C for 5-10 min was added to initiate the reaction. After incubation in the 96-well plate at 37°C for 5 min, 180 µL of acetonitrile/methanol (ACN:MeOH = 1:1) solution containing the internal standard (IS) was added to terminate the reaction. The 96-well plate was shaken at 600 rpm for 5-10 min, and then centrifuged at 6000 rpm for 15 min. 80 µL of supernatant was taken and added to 120 µL of ultrapure water, shaken uniformly, and then detected by LC-MS/MS.
as §1, with “1 mM positive control inhibitor (ketoconazole)” for “test sample”, “solution” for “solution (12 mM, 4 mM, 1.33 mM, 0.433 mM, 0.147 mM, 0.049 mM, and 0.0164 mM)”, “(20” for “(320 µM testosterone or 20”, “ACN:MeOH (1:1)” for “acetonitrile/methanol (ACN:MeOH = 1:1)”, “IS” for “the internal standard (IS)”, “LC-MS/MS. […]” for “LC-MS/MS.”
Background: Liver microsomes are vesicles of endoplasmic reticulum, rich in cytochrome P450 enzymes.

T1 sequence (P32245 whole entry): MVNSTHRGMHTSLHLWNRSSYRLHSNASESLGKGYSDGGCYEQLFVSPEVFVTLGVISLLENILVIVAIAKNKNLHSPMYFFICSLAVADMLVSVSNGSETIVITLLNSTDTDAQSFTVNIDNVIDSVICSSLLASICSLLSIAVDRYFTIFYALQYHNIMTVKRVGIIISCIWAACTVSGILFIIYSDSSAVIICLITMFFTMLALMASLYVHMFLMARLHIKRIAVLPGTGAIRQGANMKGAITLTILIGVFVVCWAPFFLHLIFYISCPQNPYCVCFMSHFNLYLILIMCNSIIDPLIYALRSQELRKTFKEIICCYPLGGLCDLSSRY
T2 sequence (P08684 whole entry): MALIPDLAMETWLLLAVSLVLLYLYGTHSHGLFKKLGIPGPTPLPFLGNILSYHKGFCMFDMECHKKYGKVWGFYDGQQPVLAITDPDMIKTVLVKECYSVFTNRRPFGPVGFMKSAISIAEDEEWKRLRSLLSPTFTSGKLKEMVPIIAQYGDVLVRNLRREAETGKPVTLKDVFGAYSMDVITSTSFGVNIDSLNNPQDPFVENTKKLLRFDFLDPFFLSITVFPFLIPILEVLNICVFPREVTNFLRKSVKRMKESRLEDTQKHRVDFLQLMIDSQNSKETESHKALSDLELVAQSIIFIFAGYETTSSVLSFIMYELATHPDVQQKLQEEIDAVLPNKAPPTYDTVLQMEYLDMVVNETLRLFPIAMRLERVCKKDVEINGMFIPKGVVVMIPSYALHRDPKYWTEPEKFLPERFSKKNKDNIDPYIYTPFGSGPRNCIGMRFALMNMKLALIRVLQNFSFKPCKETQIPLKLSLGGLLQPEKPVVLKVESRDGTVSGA

As for `COc1cc([C@@H](C)C(=O)N2C[C@@H](Nc3ccc(-c4cn(C)c(OC(F)F)n4)c(C)n3)C3(CC3)C2)c(F)cn1` [Compound 185, (R)-1-((S)-7-((5-(2-(difluoromethoxy)-1-methyl-1H-imidazol-4-yl)-6-methylpyridine-2-yl)amino)-5-azaspiro[2.4]hept-5-yl)-2-(5-fluoro-2-methoxypyridine-4-yl)propan-1-one], the IC50 (as a rule, the concentration at which inhibition is half-maximal) in series [1] was 0.54 nM. In series [2], the F is recorded as 22.9%; the AUC (as a rule, the area under the concentration-time curve, a measure of exposure) worked out at 170 ng·h/mL; the Cmax (usually the maximum level reached in the sampled fluid or tissue) was determined as 129 ng/mL; the clearance stood at 45.4 mL/min/kg. Further, the half-life – broadly, the time in which the quantity being followed falls by half – in series [2] was 40.8 min.

`COc1cc([C@@H](C)C(=O)N2C[C@H](C)[C@H](Nc3ccc(-c4ncccn4)c(C)n3)C2)c(F)cn1` [Compound 051-1, (R)-2-(5-fluoro-2-methoxypyridine-4-yl)-1-((3 S,4S)-3-methyl-4-(6-methyl-5-(pyrimidine-2-yl)pyridine-2-yl-amino)pyrrolidine-1-yl)propane-1-one]: the IC50 in series [1] came out at 2.96 nM. Further, in series [2], the F was found to be 52.7%, the AUC came to 317 ng·h/mL, the Cmax is 329 ng/mL and the clearance was 55.2 mL/min/kg. For the same compound, the half-life in series [2] is 15 min.

Compound `COc1cc([C@@H](C)C(=O)N2CC[C@H](Nc3ccc(-c4ncccn4)c(C)n3)C2)c(F)cn1` [Compound 001-1, (R)-2-(5-fluoro-2-methoxypyridine-4-yl)-1-((S)-3-((6-methyl-5-(pyrimidine-2-yl)pyridine-2-yl)amino)pyrrolidine-1-yl)propan-1-one] came in with an IC50 in series [1] of 3.95 nM. In series [2], this compound displayed an F of 86.8%, an AUC of 442 ng·h/mL, a Cmax of 338 ng/mL and a clearance of 65.3 mL/min/kg. In addition, the half-life in series [2] is 42.6 min.

Take `COc1cc([C@@H](C)C(=O)N2C[C@@H](Nc3ccc(-c4ncccn4)c(C)n3)C3(CC3)C2)c(Br)cn1` [Compound 201, (R)-2-(5-bromo-2-methoxypyridine-4-yl)-1-((S)-7-((6-methyl-5-(pyrimidine-2-yl)pyridine-2-yl)amino)-5-azaspiro[2.4]hept-5-yl)propan-1-one]: the IC50 in series [1] is 1.41 nM; in series [3] it was over 30000 nM.

`COc1cc([C@@H](C)C(=O)N2C[C@@H](Nc3ccc(-c4ncccn4)c(C)n3)C3(CC3)C2)c(F)cn1` [Compound 056-1, (2R)-2-(5-fluoro-2-methoxypyridine-4-yl)-1-[(7S)-7-{[6-methyl-5-(pyrimidine-2-yl)pyridine-2-yl]amino}-5-azaspiro[2.4]heptane-5-yl]propan-1-one] returned an IC50 in series [1] of 4.23 nM. In series [2], this compound had an F of 61.5%, an AUC of 566 ng·h/mL, a Cmax of 380 ng/mL and a clearance of 35.8 mL/min/kg. In series [2], the half-life is 53.4 min.

The compound `COc1cc([C@@H](C)C(=O)N2C[C@@H](Nc3ccc(-c4cn(C)nn4)c(C)n3)C3(CC3)C2)c(Cl)cn1` [Compound 165, (R)-2-(5-chloro-2-methoxypyridine-4-yl)-1-((S)-7-((6-methyl-5-(1-methyl-1H-1,2,3-triazol-4-yl)pyridine-2-yl)amino)-5-azaspiro[2.4]hept-5-yl)propan-1-one] displayed an IC50 in series [1] of 2.86 nM. In series [2], this compound had an F of 56.0%, an AUC of 858 ng·h/mL, a Cmax of 577 ng/mL and a clearance of 22.3 mL/min/kg. The compound also showed a half-life in series [2] of 39 min.

The compound `COc1cc([C@@H](C)C(=O)N2C[C@H](C)[C@H](Nc3ccc(-c4ncccn4)c(C)n3)C2)c(Cl)cn1` [Compound 112, (R)-2-(5-chloro-2-methoxypyridine-4-yl)-1-((3 S,4S)-3-methyl-4-(6-methyl-5-(pyrimidine-2-yl)pyridine-2-yl-amino)pyrrolidine-1-yl)propane-1-one] yielded an IC50 in series [1] of 2.3 nM. In series [2], this compound yielded an F of 33.8%, an AUC of 179 ng·h/mL, a Cmax of 157 ng/mL and a clearance of 62.5 mL/min/kg. In addition, the half-life in series [2] is 15 min.

As to `COc1cc([C@@H](C)C(=O)N2C[C@@H](Nc3ccc(-c4nc(C)n(C)n4)c(C)n3)C3(CC3)C2)c(F)cn1` [Compound 132, (2R)-1-[(7S)-7-{[5-(1,5-dimethyl-1H-1,2,4-triazole-3-yl)-6-methylpyridine-2-yl]amino}-5-azaspiro[2.4]heptane-5-yl]-2-(5-fluoro-2-methoxypyridine-4-yl)propan-1-one], in series [1], the IC50 came out at 1.06 nM.

In turn, `COc1cc([C@@H](C)C(=O)N2C[C@@H](Nc3ccc(-c4cn5c(n4)CCC5)c(C)n3)C3(CC3)C2)c(Cl)cn1` [Compound 188, (R)-2-(5-chloro-2-methoxypyridine-4-yl)-1-((S)-7-((5-(6,7-dihydro-5H-pyrrolo[1,2-a]imidazol-2-yl)-6-methylpyridine-2-yl)amino)-5-azaspiro[2.4]hept-5-yl)propan-1-one] had a concentration for half-maximal inhibition (IC50) in series [1] of 2.11 nM.

`COc1cc([C@@H](C)C(=O)N2C[C@@H](Nc3ccc(-c4cn(C)c(C)n4)c(C)n3)C3(CC3)C2)c(F)cn1` [Compound 149, (R)-1-((S)-7-((5-(1,2-dimethyl-1H-imidazol-4-yl)-6-methylpyridine-2-yl)amino)-5-azaspiro[2.4]hept-5-yl)-2-(5-fluoro-2-methoxypyridine-4-yl)propan-1-one] had a 50% inhibitory concentration (IC50) in series [1] of 1.74 nM.
